According to patent publication US20250154135A1, “M-CHOLINE RECEPTOR AGONIST COMPOUND, PREPARATION METHOD THEREFOR AND USE THEREOF” (NANJING GRITPHARMA CO., LTD., priority 2022, published 2025):
“And” between values parts separate entries of the source, which are not always exact repeats. Equal entries are not always repeated. Structures can show the parent of a compound that is named as a salt.

Experiments:
rabbit pupil [1] = assay: Rabbit pupil diameter change with other pilocarpine salts (Test Example 2); format: in vivo; conditions: for miosis effect on rabbit pupils 3 h after administration: Table 2-1 solutions, equimolar pilocarpine; for Percentage change in pupil diameter: average value ± SD
From the text: Pilocarpine nitrate: with a molecular weight of 271.27 and a purity of 98%, from Nanjing Jiqun Pharmaceutical Technology Co., Ltd., prepared into a 1.38% solution using normal saline. Pilocarpine salicylate: with a molecular weight of 346.24 and a purity of 99.73%, from Nanjing Jiqun Pharmaceutical Technology Co., Ltd., prepared into a 1.76% solution using normal saline. Pilocarpine malate: with a molecular weight of 342.21 and a purity of 99.72%, from Nanjing Jiqun Pharmaceutical Technology Co., Ltd., prepared into a 1.74% solution using normal saline. Pilocarpine maleate: with a molecular weight of 324.19 and a purity of 99.76%, from Nanjing Jiqun Pharmaceutical Technology Co., Ltd., prepared into a 1.65% solution using normal saline. Pilocarpine fumarate: with a molecular weight of 324.19 and a purity of 99.74%, from Nanjing Jiqun Pharmaceutical Technology Co., Ltd., prepared into a 1.65% solution using normal saline. Pilocarpine lipoate: with a molecular weight of 414.58 and a purity of 99.56%, from Nanjing Jiqun Pharmaceutical Technology Co., Ltd., prepared into a 2.11% solution using normal saline. Note: The concentrations of the compounds were different, but they all contained an equimolar amount of pilocarpine. Each rabbit in each group was subjected to single eye drop administration in the left eye, with an administration volume of 100 μL. […] The entire measurement process was completed by the same person.

rabbit pupil [2] = assay: Rabbit pupil constriction after single eye drop (Test Example 1); format: in vivo, New Zealand rabbit; conditions: rabbits, Test Example 1 solutions
Experimental: Except for group 5), the eye drop solutions of groups 1) to 12) described above contained an equimolar concentration of pilocarpine. The molar concentration of pilocarpine in the eye drop solution of group 5) was half of the molar concentration of pilocarpine in the solutions of the other 11 groups.
The effects of the eye drop solutions of groups 1) to 12) prepared above on rabbit pupil constriction and irritation were tested separately.
• Species and strain: New Zealand rabbit • Grade: normal • Source: Qinglongshan Animal Breeding Farm, Jiangning District, Nanjing • Production license No.: SCXK (Su) 2016-0008 • Animal age: about 110 days old at the time of administration • Animal body weight: about 2.5-3.5 kg at the time of administration • Animal sex: all male • Feed: rabbit pellet feed • Housing conditions: air-conditioned room, with a temperature of 18-26° C. and a relative humidity of 40%-80%.
• Digital vernier caliper: specification: 0-150 mm; measurement accuracy: 0.01 mm; manufacturer: Guilin Guanglu Measuring Instrument Co., Ltd.
(§1) Each rabbit was subjected to eye drop administration in the left eye (using a pipette), with an administration volume of 100 μL.
• Number of animals: for JQ series compounds, 6 rabbits per compound; for compounds 1, 2 and 4, 5 rabbits per compound. • Administration schedule: single administration. Measurement indicators and time points: • for JQ series compounds, the pupil diameter of the left eye of the rabbits was measured at time points of −0.5 h (i.e., half an hour before administration), 5 min, 10 min, 15 min, 0.5 h, 3 h and 4 h relative to administration, with the measurement repeated 3 times for each rabbit at each time point (measurement time points were extended if necessary); • for compounds 1, 2 and 4, the pupil diameter of the left eye of the rabbits was measured at time points of 3 h and 4 h relative to administration, with the measurement repeated 3 times for each rabbit at each time point (measurement time points were extended if necessary).
Percentage change in pupil diameter (%) after administration=(pupil diameter after administration−pupil diameter before administration)/pupil diameter before administration×100%
The measurement result for each rabbit at each time point was represented by the average value of three measurements.

rabbit eyes = assay: Eye irritation in rabbits (Test Example 2); format: in vivo; conditions: 2.11% solution
[3] = Stability tests on compound starting materials (HPLC related substances); format: physicochemical; conditions: starting material
Experimental: Samples: compound 1, compound 2 and pilocarpine hydrochloride starting material solid particles.
High-temperature test: 1 g of each of compound 1, compound 2 and pilocarpine hydrochloride starting materials were taken and placed in an open container inside a constant temperature device at 40° C.; samples were taken at time points of day 0 and day 5, and then tested according to the key stability examination items. The stability of the active pharmaceutical ingredient itself and the trend of changes in stability under the conditions of influencing factor tests were observed.
Strong light irradiation test: 1 g of each of compound 1, compound 2 and pilocarpine hydrochloride starting materials were taken and placed in an open container inside a light irradiation box, with the illumination set at 4500 lx±500 lx; samples were taken at time points of day 0 and day 5, and then tested according to the key stability examination items.
High-humidity test: 1 g of each of compound 1, compound 2 and pilocarpine hydrochloride starting materials was taken and placed in an open container inside a constant humidity closed container at 25° C. and with a relative humidity of 75%±5%; samples were taken at day 0 and day 5, and then tested according to the requirements of the key stability examination items.
According to the records in the European Pharmacopoeia (EP), the key related substances to be examined for pilocarpine include: impurity A isopilocarpine (Z-A), impurity B pilocarpic acid (Z-B), and impurity C isopilocarpic acid (Z-C). The samples taken at different time points from the above high-temperature test, strong light irradiation test and high-humidity test were separately tested using high-performance liquid chromatography to observe the trend of changes in stability under the conditions of the influencing factor tests.
The related substances were determined according to the high-performance liquid chromatography (General Chapter 0512, Chinese Pharmacopoeia, Volume IV, 2020 Edition).
Test sample solution: an appropriate amount of each test sample was precisely weighed, dissolved in water, and diluted to prepare a solution containing 1 mg of test sample per 1 mL.
Chromatographic conditions: octadecyl bonded silica gel was used as a filler [kromasil 100-5-C18 column (4.0 mm×[…]) or a chromatographic column with equivalent performance], 0.679 g/L tetrabutylammonium dihydrogen phosphate-methanol-acetonitrile (885:55:60) (adjusted to pH 7.7 with dilute aqueous ammonia) was used as mobile phase A, and acetonitrile-water (80:20) was used as mobile phase B; gradient elution was performed according to Table 6-1, with a column temperature of 30° C., a flow rate of 1.0 mL/min, a detection wavelength of 220 nm, and a sample injection volume of 20 μL.

rabbit pupil [4] = assay: Rabbit pupil diameter change, pilocarpine p-toluate at different concentrations (Test Example 3); format: in vivo; conditions: 1.25%
Experimental: Under the condition of normal saline, the onset time, strength of effect, duration of effect, and irritation of 1.25% pilocarpine hydrochloride and different concentrations (0.88%, 1.75%, 3.50%) of pilocarpine p-toluate were tested.
as §1
Number of animals: 6 rabbits per compound.
Administration schedule: single administration.
• the pupil diameter of the left eye of the rabbits was measured at time points of −0.5 h (i.e., half an hour before administration), 5 min, 10 min, 15 min, 0.5 h, 3 h and 4 h relative to administration, with the measurement performed 3 times for each rabbit at each time point.

[5] = drug concentration 1.65%, 0.5 h
[6] = Light-5 days (4500 lx), hydrochloride
[7] = RH 75%-5 days, 25° C., hydrochloride

Pilocarpine maleate
miosis effect on rabbit pupils 3 h after administration (rabbit pupil [1]): substantially no miosis effect
Percentage change in pupil diameter (rabbit pupil [1]; [5]): −27.53 ± 4.42%
Percentage change in pupil diameter (rabbit pupil [1]; drug concentration 1.65%, 3 h): −1.52 ± 6.38%

CC[C@@H]1C(=O)OC[C@@H]1Cc1cncn1C [Compound 4]
pupil constriction (miosis) effect at 3 h after administration (rabbit pupil [2]): still showed miosis effect

CC[C@@H]1C(=O)OC[C@@H]1Cc1cncn1C [Pilocarpine nitrate]
miosis effect on rabbit pupils 3 h after administration (rabbit pupil [1]): substantially no miosis effect

Pilocarpine fumarate
miosis effect on rabbit pupils 3 h after administration (rabbit pupil [1]): substantially no miosis effect
Percentage change in pupil diameter (rabbit pupil [1]; [5]): −22.09 ± 6.44%
Percentage change in pupil diameter (rabbit pupil [1]; drug concentration 1.65%, 3 h): −1.00 ± 1.51%

CC[C@@H]1C(=O)OC[C@@H]1Cc1cncn1C.O=C(O)CCCCC1CCSS1 [Pilocarpine lipoate]
Percentage change in pupil diameter (rabbit pupil [1]; drug concentration 2.11%, 0.5 h): −40.69 ± 2.68%
Percentage change in pupil diameter (rabbit pupil [1]; drug concentration 2.11%, 3 h): −3.11 ± 2.38%
eye irritation on administration (rabbit eyes): caused significant irritation and noticeable hyperemia

Pilocarpine malate
miosis effect on rabbit pupils 3 h after administration (rabbit pupil [1]): substantially no miosis effect
Percentage change in pupil diameter (rabbit pupil [1]; drug concentration 1.74%, 0.5 h): −27.71 ± 4.98%
Percentage change in pupil diameter (rabbit pupil [1]; drug concentration 1.74%, 3 h): 0.07 ± 2.49%

CCC1C(=O)OCC1Cc1cncn1C.O=C(O)c1ccccc1O (stereo not shown) [Pilocarpine salicylate]
miosis effect on rabbit pupils 3 h after administration (rabbit pupil [1]): substantially no miosis effect
Percentage change in pupil diameter (rabbit pupil [1]; drug concentration 1.76%, 0.5 h): −30.12 ± 4.47%
Percentage change in pupil diameter (rabbit pupil [1]; drug concentration 1.76%, 3 h): 2.91 ± 1.07%

CC[C@@H]1C(=O)OC[C@@H]1Cc1cncn1C [pilocarpine hydrochloride, reference compound]
miosis effect on rabbit pupils 3 h after administration (rabbit pupil [1]): substantially no miosis effect
(Z-C) impurity C isopilocarpic acid ([3]; 40° C.-5 days): 0%
Maximum single impurity ([3]; 40° C.-5 days): 0%
(Z-A) impurity A isopilocarpine ([3]; 40° C.-5 days, hydrochloride): 0.248%
(Z-B) impurity B pilocarpic acid ([3]; 40° C.-5 days, hydrochloride): 0%
Total impurity ([3]; 40° C.-5 days, hydrochloride): 0.248%
(Z-B) impurity B pilocarpic acid ([3]; Day 0): 0%
(Z-C) impurity C isopilocarpic acid ([3]; Day 0): 0%
Maximum single impurity ([3]; Day 0): 0%
(Z-A) impurity A isopilocarpine ([3]; Day 0, hydrochloride): 0.197%
Total impurity ([3]; Day 0, hydrochloride): 0.197%
(Z-C) impurity C isopilocarpic acid ([3]; Light-5 days (4500 lx)): 0%
Maximum single impurity ([3]; Light-5 days (4500 lx)): 0%
(Z-A) impurity A isopilocarpine [3, 6]: 0.248%
(Z-B) impurity B pilocarpic acid [3, 6]: 0%
Total impurity [3, 6]: 0.248%
(Z-C) impurity C isopilocarpic acid ([3]; RH 75%-5 days, 25° C.): 0%
(Z-A) impurity A isopilocarpine [3, 7]: 0.259%
(Z-B) impurity B pilocarpic acid [3, 7]: 1.641%
Maximum single impurity [3, 7]: 0.123%
Total impurity [3, 7]: 2.023%
Percentage change in pupil diameter (rabbit pupil [4]; 5 min, average of 6 rabbits): −7.81%
Percentage change in pupil diameter (rabbit pupil [4]; 5 min, individual rabbit, hydrochloride): −6.28% and −7.23% and −8.93% and −6.51% and −15.75% and −2.17%
Percentage change in pupil diameter (rabbit pupil [4]; 10 min, average of 6 rabbits): −29.35%
Percentage change in pupil diameter (rabbit pupil [4]; 10 min, individual rabbit, hydrochloride): −29.40% and −32.93% and −28.98% and −26.64% and −36.43% and −21.69%
Percentage change in pupil diameter (rabbit pupil [4]; 15 min, average of 6 rabbits): −35.33%
Percentage change in pupil diameter (rabbit pupil [4]; 15 min, individual rabbit, hydrochloride): −40.68% and −36.99% and −33.54% and −33.71% and −42.10% and −24.95%
Percentage change in pupil diameter (rabbit pupil [4]; 0.5 h, average of 6 rabbits): −34.59%
Percentage change in pupil diameter (rabbit pupil [4]; 0.5 h, individual rabbit, hydrochloride): −36.45% and −36.62% and −38.14% and −32.89% and −39.82% and −23.64%
Percentage change in pupil diameter (rabbit pupil [4]; 3 h, average of 6 rabbits): −3.13%
Percentage change in pupil diameter (rabbit pupil [4]; 3 h, individual rabbit, hydrochloride): 4.54% and −0.58% and 0.03% and −6.71% and −16.22% and 0.16%
Percentage change in pupil diameter (rabbit pupil [4]; 4 h, average of 6 rabbits): 0.25%
Percentage change in pupil diameter (rabbit pupil [4]; 4 h, individual rabbit, hydrochloride): −0.15% and −1.79% and 2.79% and 2.49% and −2.39% and 0.54%
maximum percentage change in pupil diameter (rabbit pupil [2]): around 35%
pupil constriction (miosis) effect at 3 h after administration (rabbit pupil [2]; hydrochloride): substantially no pupil constriction effect
